16 molecules from ChEMBL document CHEMBL1134628, “Are free energy calculations useful in practice? A comparison with rapid scoring functions for the p38 MAP kinase protein system” (J Med Chem, 2001) can be followed below.

Molecules are shown by their SMILES.

For the test, the target named is MAP kinase p38 (Homo sapiens, UniProt O15264+Q15759+Q16539+P53778). Description: Binding affinity against p38 MAP kinase system. The format is protein assay.
The molecule `O=c1ncn2nc(Sc3ccccc3)ccc2c1-c1c(Cl)cccc1Cl` showed a pIC50 of 6.602. In the case of `O=c1ncn2nc(Sc3ccc(Cl)c(Cl)c3)ccc2c1-c1c(Cl)cccc1Cl` it was 6.097; in that of `Cc1ccc(Sc2ccc3c(-c4c(Cl)cccc4Cl)c(=O)ncn3n2)cc1`, 5.854.

Turning to `O=c1ncn2nc(Sc3cccc(Cl)c3)ccc2c1-c1c(Cl)cccc1Cl`, the pIC50 is listed as 6.553. In the case of `O=c1ncn2nc(Sc3cccc(F)c3)ccc2c1-c1c(Cl)cccc1Cl` it was 6.347; in that of `Cc1cc(Cl)ccc1Sc1ccc2c(-c3c(Cl)cccc3Cl)c(=O)ncn2n1`, 6.745. In the case of `O=c1ncn2nc(Sc3ccccc3O)ccc2c1-c1c(Cl)cccc1Cl` it was 6.444; in that of `Cc1cccc(Sc2ccc3c(-c4c(Cl)cccc4Cl)c(=O)ncn3n2)c1`, 5.854. In the case of `Nc1cc(F)ccc1Sc1ccc2c(-c3c(Cl)cccc3Cl)c(=O)ncn2n1` it was 6.658.

Turning to `Cc1ccccc1Sc1ccc2c(-c3c(Cl)cccc3Cl)c(=O)ncn2n1`, the negative-log IC50 (pIC50) was determined as 6.699. In the case of `O=c1ncn2nc(Sc3ccccc3Br)ccc2c1-c1c(Cl)cccc1Cl` it was 6.602; in that of `O=c1ncn2nc(Sc3ccc(F)cc3)ccc2c1-c1c(Cl)cccc1Cl`, 7.

As for `Cc1ccc(Sc2ccc3c(-c4c(Cl)cccc4Cl)c(=O)ncn3n2)cc1C`, the pIC50 is given as 5.721. In the case of `Cc1ccc(Sc2ccc3c(-c4c(Cl)cccc4Cl)c(=O)ncn3n2)c(C)c1` it was 6.577. In the case of `O=c1ncn2nc(Sc3ccc(F)cc3Cl)ccc2c1-c1c(Cl)cccc1Cl` it was 7.444; in that of `O=c1ncn2nc(Sc3ccc(F)c(Cl)c3)ccc2c1-c1c(Cl)cccc1Cl`, 6.301.
